Data set [1] concerns S. aureus ATCC 8235-4 (MSSA). Briefly: Broth microdilution MIC against S. aureus ATCC 8235-4. In kind it is cell-based. To be noted: lowest concentration preventing visible growth. A general note: Dilution methods test growth across graded concentrations, often in twofold steps.
Data set [2] deals with COXI and SDH-A mitochondrial proteins. It counts as cell-based. As to conditions: read-out: Mt protein synthesis inhibition IC50.
Data set [3] relates to CYP1A2, 2C9, 2C19, 2D6, 3A4. Briefly: CYP inhibition. In kind it is in vitro ADME. As to conditions: measured against CYP1A2, 2C9, 2C19, 2D6, 3A4.
Data set [4] in a line: Cytotoxicity against HepG2 cells using CellTiter Glo. As to conditions: human. In kind it is cell-based. In general terms: ATP-based viability assays read luminescence as a measure of living cells.

Marks after values point to notes of the source that are not given here. Some results are limits rather than exact numbers.

Turning to `CC(=O)NC[C@H]1CN(c2ccc(N3CCOC4(CCCNC4)C3)c(F)c2)C(=O)O1` (stereo partly drawn) [Compound 25], the MIC in data set [1] is reported as > 32^b μg/mL.

With `CC(=O)NC[C@H]1CN(c2ccc(N3CCO[C@@]4(CCCOC4)C3)c(F)c2)C(=O)O1` [Compound 19a], the IC50 (in general, the point on the concentration scale where inhibition reaches its midpoint) in data set [2] is 30 µM. The CYP inhibition in data set [3] is greater than 100 µM. Also, the EC50 (in general, the concentration giving half of the maximal effect) in data set [4] was greater than 30 µM.

In data set [3], `CC(=O)NC[C@H]1CN(c2ccc(N3CCOCC3)c(F)c2)C(=O)O1` [Linezolid, linezolid, reference compound] registered a CYP inhibition greater than 100 µM. In data set [4], the EC50 is greater than 30 µM.

On to `CC(=O)NC[C@H]1CN(c2ccc(N3CCO[C@]4(CCCOC4)C3)c(F)c2)C(=O)O1` [Compound 19b], for which, in data set [2], the IC50 was greater than 30 µM. In addition, in data set [3], the CYP inhibition is greater than 100 µM. The EC50 in data set [4] is greater than 30 µM.

For the molecule `CC(=O)NC[C@H]1CN(c2ccc(N3CCOC4(CCN(C)C4)C3)c(F)c2)C(=O)O1` (stereo partly drawn) [Compound 17], the MIC in data set [1] is recorded as > 32^b μg/mL.

Turning to `CC(=O)NC[C@H]1CN(c2ccc(N3CCOC(C)(CCN(C)C)C3)c(F)c2)C(=O)O1` (stereo partly drawn) [Compound 23], the MIC in data set [1] is recorded as > 32^b μg/mL.

As for `CC(=O)NC[C@H]1CN(c2ccc(N3CCOC4(CCNC4)C3)c(F)c2)C(=O)O1` (stereo partly drawn) [Compound 27], the MIC in data set [1] is > 32^b μg/mL.
